# Test results published in article PMC9966370, “Biological Evaluation and In Vitro Characterization of ADME Profile of In-House Pyrazolo[3,4-d]pyrimidines as Dual Tyrosine Kinase Inhibitors Active against Glioblastoma Multiforme” (Pharmaceutics, 2023).
# Read-outs that look alike come from different tables or passages of the source. Marks after values point to notes of the source that are not given here.
# Tests used:
# c-Src = target: T1, c-Src (Homo sapiens, UniProt P12931); assay: cell-free enzymatic assay (ADP-Glo), c-Src; format: biochemical
# T1 construct: purchased Promega (Madison, WI, USA)
# Procedure: (§4) The reactions were carried out in accordance with the manufacturer’s instructions, with minor modifications. The experiments were run using all substrates at least twice the concentration of apparent Km. […] All reactions were run out at 30 °C for 10 min with 10–50 ng of enzyme and 10 µL of 10% DMSO. Protein low-binding tubes were used to prevent peptide adsorption onto the plastic surface. To detect kinase activity, the ADP-Glo Kinase Assay (Promega, Madison, WI, USA) was used according to the manufacturer’s protocol. Into white 384-well plates, reactions were stopped for 50 min at RT by adding 10 µL of ADP-Glo Reagent (Promega, Madison, WI, USA). After 30 min, 20 µL of Detection Reagent (Promega, Madison, WI, USA) was added, and the reaction was read using a GloMax Discover microplate reader (Promega, Madison, WI, USA). […] Compounds analyzed were considered to act as ATP-competitive inhibitors.
# [1] = cytotoxicity on nontumoral healthy cells, MTT assay, FIBRO 2-93; format: cell-based, human; details: human, FIBRO 2-93 healthy fibroblasts, 72 h treatment, MTT
# Procedure: (§5) The protocol used to assess the cytotoxic effect on both healthy cell lines was the same described above for the antiproliferative assay. For both the antiproliferative and the cytotoxic assays, 3-(4,5-dimethylthiazol-2-yl)-2,5-diphenyltetrazolium bromide (MTT) was used to assess cell viability as previously described [20]. […] Afterward, formazan violet crystals were solubilized in 150 μL of isopropanol, and the absorbance was quantified at 570 nm using a Multiskan SkyHigh Microplate Spectrophotometer (ThermoFisher, Waltham, MA, USA). Cell viability was expressed as a percentage of DMSO-treated cells (controls), taken as 100%.
# [2] = cytotoxicity on nontumoral healthy cells, MTT assay, HaCaT; format: cell-based, human; details: human, HaCaT keratinocytes, 72 h treatment
# Procedure: as §5
# LN229 GBM cell line = assay: antiproliferative activity, MTT assay, LN229; format: cell-based; details: Homo sapiens, LN-229, 72 h treatment
# Procedure: (§1) Cell-based assays were performed using four GBM cell lines, i.e., U-87, LN18, LN229, and DBTRG, cultured in Dulbecco’s modified Eagle medium (DMEM) (U-87, LN18, and LN229) or Roswell Park Memorial Institute medium (RPMI 1640) (DBTRG). Both media were implemented with 10% fetal bovine serum (FBS), 2 mM L-glutamine, and 10,000 units/mL penicillin/streptomycin at 37 °C in a 5% CO2 atmosphere. […] The final concentration of DMSO used never exceeded 0.5% v/v, and appropriate controls were always performed in each assay. […] These were cultured in DMEM supplemented with 10% FBS, 2 mM L-glutamine, and 10,000 units/mL penicillin/streptomycin at 37 °C in a 5% CO2 atmosphere. The protocol used to assess the cytotoxic effect on both healthy cell lines was the same described above for the antiproliferative assay. For both the antiproliferative and the cytotoxic assays, 3-(4,5-dimethylthiazol-2-yl)-2,5-diphenyltetrazolium bromide (MTT) was used to assess cell viability as previously described. Briefly, 150 μL of MTT (5 mg/mL in FBS-free culture medium) was added to each well, and the plates incubated for 4 h in a 5% CO2 atmosphere at 37 °C. Afterward, formazan violet crystals were solubilized in 150 μL of isopropanol, and the absorbance was quantified at 570 nm using a Multiskan SkyHigh Microplate Spectrophotometer (ThermoFisher, Waltham, MA, USA). Cell viability was expressed as a percentage of DMSO-treated cells (controls), taken as 100%. […] To support MTT data, cytotoxicity assays was always paralleled by a careful observation of cells under a phase-contrast light microscope, as described in USP 28 (United States Pharmacopeia edition 2005) as an alternative method. This analysis was performed by an expert operator blind to the treatment, and exemplificative photos representing the effects of compound 5 on LN229 and DBTRG cells are reported in Figures S2 and S3 (Supplementary Materials).
# PAMPA, BBB permeability = format: in vitro ADME; details: RT; for BBB membrane retention (MR%): 5 h, pH 7.4; for Papp at 5 h, 500 µM: pH 7.4, PAMPA
# Procedure: (§2) UV/LC–MS chromatographic analyses were carried out using an Agilent 1100 LC/MSD VL system (G1946C) purchased from Agilent Technologies (Palo Alto, CA, USA). […] The analysis began with 5% B (t = 0–1 min), increased to 95% (t = 1–10 min), maintained at 95% (t = 10–19 min), and finally returned to 5% […]. The analyses were performed at a flow rate of 0.6 mL/min, UV detection was monitored at 254 nm, and spectra were acquired over the scan range of m/z 100–1000 in both positive and negative modes.
# (§3) The DMSO stock of each compound was diluted with phosphate buffer (PBS 25 mM, pH 7.4) to a final concentration of 500 µM in order to obtain the “donor”. For GI and BBB permeability, filters were coated with 10 µL of 1% w/v dodecane phosphatidylcholine solution or 5 µL of 10% w/v CHCl3/dodecane brain polar lipid solution. The donor (150 µL) was poured over the artificial membranes on the filter plate. DMSO/PBS (300 µL, 1:1 v/v) was then added to the acceptor wells. After assembling the sandwich plates, the experiments were run for 5 h at room temperature (RT). Lastly, the amount of compound passed though the artificial membranes was determined using the UV/LC–MS method described above. Apparent permeability (Papp) and membrane retention (MR%) were determined as previously described.
# DBTRG GBM cell line = assay: antiproliferative activity, MTT assay, DBTRG; format: cell-based; details: Homo sapiens, 72 h treatment
# Procedure: as §1
# [3] = HLM, previously published, cited from earlier work; for Metabolite Formation M1: M1 = M − HCl + O
# LN18 GBM cell line = assay: antiproliferative activity, MTT assay, LN18; format: cell-based; details: Homo sapiens, LN-18, 72 h treatment
# Procedure: as §1
# U-87 GBM cell line [4] = assay: antiproliferative activity, MTT assay, U-87; format: cell-based; details: Homo sapiens, 72 h treatment
# Procedure: as §1
# PAMPA, GI permeability = format: in vitro ADME; details: RT; for GI membrane retention (MR%): 5 h, pH 7.4; for Papp at 5 h, 500 µM: pH 7.4, PAMPA
# Procedure: as §2, §3
# [5] = set-up: method as in PMID 21443205; details: previously published; cited from earlier work
# Abl = target: T2, Abl (Homo sapiens, UniProt P00519); assay: cell-free enzymatic assay (ADP-Glo), Abl; format: biochemical; details: 30 µM ATP, 50 µM Abltide
# T2 construct: purchased Promega (Madison, WI, USA)
# Procedure: as §4
# [6] = metabolic stability assay in human liver microsomes; format: in vitro ADME; details: HLM 0.2 mg/mL, NADPH, 1 h, 37 °C
# Procedure: as §2
# Each DMSO compound solution was incubated for 1 h at 37 °C in the presence of 500 µL of PBS (25 mM, pH 7.4), human liver microsomal (HLM) proteins (0.2 mg/mL), and 10 mM NADPH solution in MgCl2 (48 mM). The reactions were stopped with 1.0 mL of cold ACN. The samples were centrifuged (4000 rpm for 10 min), and the supernatants were collected, dried under N2 flow, and suspended in 100 µL of methanol (MeOH). Parent drugs and metabolites were determined using the previously described HPLC/UV–MS method. The percentage metabolic stability was calculated by comparing the metabolized and unmetabolized compounds.
# U-87 GBM cell line [7] = details: previously published; cited from earlier work
# T1 sequence (P12931 whole entry): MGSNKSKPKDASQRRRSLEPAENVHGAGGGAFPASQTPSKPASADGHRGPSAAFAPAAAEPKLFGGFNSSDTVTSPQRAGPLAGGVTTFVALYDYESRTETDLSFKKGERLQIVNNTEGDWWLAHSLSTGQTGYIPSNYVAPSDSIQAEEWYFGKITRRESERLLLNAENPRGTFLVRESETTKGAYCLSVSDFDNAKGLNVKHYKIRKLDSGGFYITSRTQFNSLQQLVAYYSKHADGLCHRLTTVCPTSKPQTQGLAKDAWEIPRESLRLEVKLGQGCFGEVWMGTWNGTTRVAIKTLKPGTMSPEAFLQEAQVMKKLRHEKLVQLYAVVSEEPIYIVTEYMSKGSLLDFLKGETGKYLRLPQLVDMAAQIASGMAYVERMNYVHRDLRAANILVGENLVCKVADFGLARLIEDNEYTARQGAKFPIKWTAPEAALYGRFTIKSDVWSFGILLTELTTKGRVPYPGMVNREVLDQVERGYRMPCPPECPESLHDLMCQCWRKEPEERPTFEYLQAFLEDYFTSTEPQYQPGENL
# T2 sequence (P00519 whole entry): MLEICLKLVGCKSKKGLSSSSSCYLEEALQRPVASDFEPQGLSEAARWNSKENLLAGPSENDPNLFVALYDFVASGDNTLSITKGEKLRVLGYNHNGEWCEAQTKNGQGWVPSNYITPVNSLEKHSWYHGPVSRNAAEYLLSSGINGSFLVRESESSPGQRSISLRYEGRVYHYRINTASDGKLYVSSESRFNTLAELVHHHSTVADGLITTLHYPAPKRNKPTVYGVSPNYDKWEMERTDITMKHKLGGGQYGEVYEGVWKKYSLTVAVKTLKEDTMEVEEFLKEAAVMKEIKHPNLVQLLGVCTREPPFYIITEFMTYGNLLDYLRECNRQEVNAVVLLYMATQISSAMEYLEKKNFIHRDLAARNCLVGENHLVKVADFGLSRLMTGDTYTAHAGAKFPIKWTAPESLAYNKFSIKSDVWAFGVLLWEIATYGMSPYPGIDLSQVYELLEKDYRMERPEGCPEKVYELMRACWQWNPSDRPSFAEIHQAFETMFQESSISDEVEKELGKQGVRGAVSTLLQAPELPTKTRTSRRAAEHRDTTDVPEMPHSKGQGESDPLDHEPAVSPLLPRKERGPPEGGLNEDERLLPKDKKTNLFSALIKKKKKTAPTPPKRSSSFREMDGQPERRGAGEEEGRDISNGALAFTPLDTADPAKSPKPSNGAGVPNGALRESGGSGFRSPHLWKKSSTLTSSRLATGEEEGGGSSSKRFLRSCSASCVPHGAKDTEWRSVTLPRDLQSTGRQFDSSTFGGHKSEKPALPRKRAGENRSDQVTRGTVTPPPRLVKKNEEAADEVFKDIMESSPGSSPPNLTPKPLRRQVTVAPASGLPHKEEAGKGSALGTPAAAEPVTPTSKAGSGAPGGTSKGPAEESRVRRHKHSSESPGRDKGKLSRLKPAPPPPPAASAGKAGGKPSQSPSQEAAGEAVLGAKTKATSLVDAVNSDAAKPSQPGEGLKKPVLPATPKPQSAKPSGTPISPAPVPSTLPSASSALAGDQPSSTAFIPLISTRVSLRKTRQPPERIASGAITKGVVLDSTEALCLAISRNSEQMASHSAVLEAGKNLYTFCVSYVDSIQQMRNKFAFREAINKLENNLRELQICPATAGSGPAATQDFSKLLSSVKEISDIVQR
Structure (SMILES),"Ki (c-Src; 100 µM ATP, 500 µM Src-peptide, read-out: c-Src Ki)",CC50 at 72 h [1],CC50 at 72 h [2],IC50 (LN229 GBM cell line),"BBB membrane retention (MR%) (PAMPA, BBB permeability)","Papp at 5 h, 500 µM (PAMPA, BBB permeability)",IC50 (DBTRG GBM cell line),Metabolite Formation M1 [3],Metabolite Formation M3 ([3]; M3 = M—group bearing NH moiety in R2),IC50 (LN18 GBM cell line),IC50 (U-87 GBM cell line [4]),"GI membrane retention (MR%) (PAMPA, GI permeability)","Papp at 5 h, 500 µM (PAMPA, GI permeability)",QP LogS [5],Ki (c-Src),Ki (Abl),Metabolic Stability [6],melting point,IC50 (U-87 GBM cell line [7]),Metabolic Stability [3]
Fc1ccc(CNc2ncnc3c2cnn3CC(Cl)c2ccc(Cl)cc2)cc1 (stereo not shown) [Compound 7],0.8 ± 0.09 µM,28.6 ± 3.7 µM,37.8 ± 4.9 µM,7.1 ± 1.1 µM,4.4%,≥ 10 ×10⁻⁶ cm/s,14.6 ± 0.9 µM,4%,2%,3.9 ± 0.6 µM,22.7 ± 2.3 µM,–,–,–,–,–,–,–,–,–
CSc1nc(NCCc2ccccc2)c2cnn(CC(Cl)c3ccccc3)c2n1 (stereo not shown) [Compound 8],–,–,–,26.1 ± 2.8 µM,18.3%,5.96 ×10⁻⁶ cm/s,31.2 ± 2.5 µM,–,–,5.9 ± 1.1 µM,37.9 ± 3.9 µM,42.7%,3.2 ×10⁻⁶ cm/s,–,–,–,–,–,–,–
ClC(Cn1ncc2c(NCc3ccccc3)nc(SCCN3CCOCC3)nc21)c1ccccc1 (stereo not shown) [Compound 9],–,–,–,58.2 ± 3.4 µM,6.3%,2.6 ×10⁻⁶ cm/s,59.4 ± 3.7 µM,M1 = 5 * %,–,2.9 ± 0.5 µM,> 100 µM,–,–,−5.6 *,–,–,–,–,–,–
Clc1ccc(C(Cl)Cn2ncc3c(NCCc4ccccc4)ncnc32)cc1 (stereo not shown) [Compound 10],–,–,–,27.9 ± 2.1 µM,4.8%,≥ 10 ×10⁻⁶ cm/s,46.5 ± 4.1 µM,–,–,6.2 ± 1 µM,33.9 ± 2.9 µM,17.2%,≥ 10 ×10⁻⁶ cm/s,–,0.22 ± 0.03 µM,0.31 ± 0.02 µM,85.9%,–,–,–
Fc1cccc(CNc2ncnc3c2cnn3CCc2ccccc2)c1 [Compound 11],–,–,–,58.4 ± 3 µM,5.2%,≥ 10 ×10⁻⁶ cm/s,69.2 ± 3.9 µM,–,–,34.1 ± 2.9 µM,56.9 ± 3.3 µM,6.7%,≥ 10 ×10⁻⁶ cm/s,–,–,–,–,113 to 114 °C,–,–
ClC(Cn1ncc2c(Nc3ccccc3)ncnc21)c1ccc(Br)cc1 (stereo not shown) [Compound 12],–,–,–,> 100 µM,–,–,> 100 µM,–,–,> 100 µM,–,–,–,–,–,–,–,–,14 ± 1.9 µM,≥ 90%
